In patent publication US20230126447A1, “OCULAR DRUG DEPOT FOR COMPLEMENT-MEDIATED DISORDERS” (priority 2020, published 2023):
Like-named read-outs stand apart in the source and are kept apart here.

Test: Ocular tissue distribution and pharmacokinetics, 7.5 and 15 mg/kg oral, pigmented Dutch Belted rabbits (Example 7)
Assay type: in vivo
Conditions: for Mean retina concentration / Mean plasma concentration / concentration at 0 h / concentration at 1 h / concentration at 6 h / concentration at 24 h / concentration at 96 h / concentration at 168 h / concentration at 12 h / concentration at 240 h: DB rabbits; for Tmax / concentration at 0 h / concentration at 1 h / concentration at 6 h / concentration at 24 h / concentration at 96 h / concentration at 168 h / concentration at 12 h / concentration at 240 h / MRT last: Dutch Belted, rabbit; for concentration at 0 h / concentration at 1 h / concentration at 6 h / concentration at 24 h / concentration at 96 h / concentration at 168 h / concentration at 12 h / concentration at 240 h: oral
Protocol: For Group 1, two animals/time point were sacrificed via an overdose of sodium pentobarbital at approximately 1, 6, 12, 24, 96, 168, and 240 hours postdose. Blood (approximately 2 mL) was collected from all animals at sacrifice into tubes containing K2EDTA via exsanguination (cardiac puncture).
For Groups 2 through 4, blood (approximately 2 mL) was collected via a jugular vein using a syringe and needle and was transferred into tubes containing K2EDTA at approximately 12 hours after the a.m. dose on Day 15 from the two animals designated for sacrifice at approximately 240 hours after the a.m. dose on Day 15.
For Groups 2 through 4, two animals/group/time point were sacrificed via an overdose of sodium pentobarbital prior to dosing on Day 15 and at approximately 1, 6, 24, 96, 168, and 240 hours after the a.m. dose on Day 15. Blood (approximately 2 mL) was collected from all animals at sacrifice into tubes containing K2EDTA via exsanguination (cardiac puncture).
Blood was maintained on wet ice, in chilled cryoracks, or at approximately 5° C. prior to centrifugation to obtain plasma. Centrifugation began within 1 hour of collection (Deviation). Plasma was placed into 96-well tubes with barcode labels. Plasma was maintained on dry ice prior to storage at approximately −70° C.
At the time of sacrifice, both eyes were enucleated, and the following tissues were collected. Each eye was flash-frozen in liquid nitrogen for 15 to 20 seconds. The enucleated eye was placed on dry ice or stored at approximately −70° C. for at least 2 hours. Within approximately 3 days, the frozen matrices were collected as right and left eyes for each matrix into the specific tube type listed.
At the time of frozen collection, the ocular tissues were rinsed with saline and blotted dry (as appropriate), weighed, and placed on dry ice. All ocular tissues were collected as single samples.

[1] = Choroid-RPE (OU), male DB rabbits, Group 1, Day 1, […] single oral dose
[2] = Choroid-RPE (OU), male DB rabbits, Group 2, Day 15, […] BID oral (15 mg/kg/day)
[3] = Choroid-RPE (OU), male DB rabbits, Group 3, Day 15, 15 mg/kg/dose BID oral (30 mg/kg/day)
[4] = choroid-RPE, 15 mg/kg, Day 15, 15 mg/kg BID, read-out: Mean Choroid-RPE Concentration
[5] = choroid-RPE, […], Day 1, […] single dose, read-out: Mean Choroid-RPE Concentration
[6] = choroid-RPE, […], Day 15, […] BID, read-out: Mean Choroid-RPE Concentration
[7] = iris-ciliary body (ICB), ICB (OU), male DB rabbits, Group 1, Day 1, 7.5 mg/kg single oral dose
[8] = iris-ciliary body, 15 mg/kg, Day 15, 15 mg/kg BID, read-out: Mean Iris-Ciliary Concentration
[9] = iris-ciliary body, […], Day 1, […] single dose, read-out: Mean Iris-Ciliary Concentration
[10] = iris-ciliary body, […], Day 15, […] BID, read-out: Mean Iris-Ciliary Concentration
[11] = plasma, 15 mg/kg, Day 15, 15 mg/kg BID, read-out: Mean Plasma Concentration
[12] = plasma, […], Day 1, […] single dose, read-out: Mean Plasma Concentration
[13] = plasma, […], Day 15, […] BID, read-out: Mean Plasma Concentration
[14] = retina, 15 mg/kg, Day 15, 15 mg/kg BID, read-out: Mean Retina Concentration
[15] = retina, […], Day 15, […] BID, read-out: Mean Retina Concentration

In the case of `CC(=O)c1nn(CC(=O)N2C[C@H](F)C[C@H]2C(=O)Nc2cccc(Br)n2)c2ccc(-c3cnc(C)nc3)cc12` [Compound 1, (2S,4R)-1-(2-(3-Acetyl-5-(2-methylpyrimidin-5-yl)-1H-indazol-1-yl)acetyl)-N-(6-bromopyridin-2-yl)-4-fluoropyrrolidine-2-carboxamide], the “Ocular tissue exposure in melanin-containing tissues (ICB and choroid-RPE), DB compared to NZW rabbits” value (30 mg/kg/day (15 mg/kg/dose, BID)) is reported as “greater than 10 fold”, the AUC0-12 [1] is reported as 5550 ng·h/g and the AUC0-240 [1] is reported as 14000 ng·h/g. The AUC(0-24) [1] was 7580 ng·h/g, the AUC(0-inf) [1] was 14500 ng·h/g and the AUC(0-t) [1] was 14000 ng·h/g. The Ctrough [1] was 260 ng/g, the “DN AUC0-12” value [1] was 740 (h*ng/g)/(mg/kg/dose) and the “DN AUC0-24” value [1] was 1010 (h*ng/g)/(mg/kg/day). For the same compound, the “DN Cmax” value [1] was 96.8 (ng/g)/(mg/kg/day, the AUC0-12 [2] was 18500 ng·h/g and the AUC0-240 [2] was 89100 ng·h/g. It also gave an AUC(0-24) [2] of 30100 ng·h/g, an AUC(0-t) [2] of 89100 ng·h/g and a Ctrough [2] of 1250 ng/g. For the same compound, the “DN AUC0-12” value [2] was 2470 (h*ng/g)/(mg/kg/dose), the “DN AUC0-24” value [2] was 4020 (h*ng/g)/(mg/kg/day) and the “DN Cmax” value [2] was 267 (ng/g)/(mg/kg/day. It also gave an AUC0-12 [3] of 28200 ng·h/g, an AUC0-240 [3] of 151000 ng·h/g and an AUC(0-24) [3] of 47500 ng·h/g. The AUC(0-t) [3] was 151000 ng·h/g, the Ctrough [3] was 1740 ng/g and the “DN AUC0-12” value [3] was 1880 (h*ng/g)/(mg/kg/dose). For the same compound, the “DN AUC0-24” value [3] was 3170 (h*ng/g)/(mg/kg/day), the “DN Cmax” value [3] was 265 (ng/g)/(mg/kg/day and the “Mean retina concentration” value (Day 1, […] single dose, 24 hr) was “BLQ”. The “Mean plasma concentration” value (Day 1, […] single dose, 96 hr) was “BLQ”, the “Mean retina concentration” value (Day 1, […] single dose, 96 hr) was “BLQ” and the “Mean plasma concentration” value (Day 1, […] single dose, 168 hr) was “BLQ”. For the same compound, the “Mean retina concentration” value (Day 1, […] single dose, 168 hr) was “BLQ”, the “Mean plasma concentration” value (Day 1, […] single dose, 240 hr) was “BLQ” and the “Mean retina concentration” value (Day 1, […] single dose, 240 hr) was “BLQ”. For the same compound, the “Mean plasma concentration” value (Day 15, 15 mg/kg BID, 96 hr) was “BLQ”, the “Mean plasma concentration” value (Day 15, 15 mg/kg BID, 168 hr) was “BLQ” and the “Mean plasma concentration” value (Day 15, 15 mg/kg BID, 240 hr) was “BLQ”. For the same compound, the “Mean plasma concentration” value (Day 15, […] BID, 96 hr) was “BLQ”, the “Mean plasma concentration” value (Day 15, […] BID, 168 hr) was “BLQ” and the “Mean plasma concentration” value (Day 15, […] BID, 240 hr) was “BLQ”. It also gave a Tmax (choroid-RPE (choroid-retinal pigment epithelium), Choroid-RPE (OU), male DB rabbits, Group 1, Day 1, 7.5 mg/kg single oral dose) of 1 h, a concentration at 0 h [4] of 1540 ng/g and a concentration at 1 h [4] of 3970 ng/g. For the same compound, the concentration at 6 h [4] was 1880 ng/g, the concentration at 24 h (choroid-RPE, 15 mg/kg, Day 15, 15 mg/kg BID, 24 hr, read-out: Mean Choroid-RPE Concentration) was 1470 ng/g and the concentration at 96 h (choroid-RPE, 15 mg/kg, Day 15, 15 mg/kg BID, 96 hr, read-out: Mean Choroid-RPE Concentration) was 441 ng/g. The concentration at 168 h (choroid-RPE, 15 mg/kg, Day 15, 15 mg/kg BID, 168 hr, read-out: Mean Choroid-RPE Concentration) was 195 ng/g, the concentration at 1 h [5] was 726 ng/g and the concentration at 6 h [5] was 472 ng/g. It also gave a concentration at 12 h [5] of 260 ng/g, a concentration at 24 h (choroid-RPE, […], Day 1, […] single dose, 24 hr, read-out: Mean Choroid-RPE Concentration) of 78 ng/g and a concentration at 96 h (choroid-RPE, […], Day 1, […] single dose, 96 hr, read-out: Mean Choroid-RPE Concentration) of 28.4 ng/g. It also gave a concentration at 168 h (choroid-RPE, […], Day 1, […] single dose, 168 hr, read-out: Mean Choroid-RPE Concentration) of 19.4 ng/g, a concentration at 0 h [6] of 695 ng/g and a concentration at 1 h [6] of 2000 ng/g. For the same compound, the concentration at 6 h [6] was 1530 ng/g, the concentration at 24 h (choroid-RPE, […], Day 15, […] BID, 24 hr, read-out: Mean Choroid-RPE Concentration) was 685 ng/g and the concentration at 96 h (choroid-RPE, […], Day 15, […] BID, 96 hr, read-out: Mean Choroid-RPE Concentration) was 238 ng/g. For the same compound, the concentration at 168 h (choroid-RPE, […], Day 15, […] BID, 168 hr, read-out: Mean Choroid-RPE Concentration) was 183 ng/g, the concentration at 240 h (choroid-retinal pigment epithelium (choroid-RPE), 15 mg/kg, Day 15, 15 mg/kg BID, 240 hr, read-out: Mean Choroid-RPE Concentration) was 119 ng/g and the concentration at 240 h (choroid-retinal pigment epithelium (choroid-RPE), […], Day 1, […] single dose, 240 hr, read-out: Mean Choroid-RPE Concentration) was 5.23 ng/g. It also gave a concentration at 240 h (choroid-retinal pigment epithelium (choroid-RPE), […], Day 15, […] BID, 240 hr, read-out: Mean Choroid-RPE Concentration) of 111 ng/g, an MRT last (choroid-retinal pigment epithelium (choroid-RPE), Choroid-RPE (OU), male DB rabbits, Group 1, Day 1, 7.5 mg/kg single oral dose) of 42.8 h and a Tmax (choroid-retinal pigment epithelium (choroid-RPE), Choroid-RPE (OU), male DB rabbits, Group 2, Day 15, 7.5 mg/kg/dose BID oral (15 mg/kg/day)) of 1 h. It also gave a Tmax (choroid-retinal pigment epithelium (choroid-RPE), Choroid-RPE (OU), male DB rabbits, Group 3, Day 15, 15 mg/kg/dose BID oral (30 mg/kg/day)) of 1 h, an MRT last [7] of 5.59 h and a Tmax [7] of 1 h. It also gave a Tmax (iris-ciliary body (ICB), ICB (OU), male DB rabbits, Group 3, Day 15, 15 mg/kg/dose BID oral (30 mg/kg/day)) of 1 h, a concentration at 1 h [8] of 2050 ng/g and a concentration at 6 h [8] of 939 ng/g. It also gave a concentration at 24 h (iris-ciliary body, 15 mg/kg, Day 15, 15 mg/kg BID, 24 hr, read-out: Mean Iris-Ciliary Concentration) of 460 ng/g, a concentration at 1 h [9] of 435 ng/g and a concentration at 6 h [9] of 163 ng/g. The concentration at 24 h (iris-ciliary body, […], Day 1, […] single dose, 24 hr, read-out: Mean Iris-Ciliary Concentration) was 31.4 ng/g, the concentration at 1 h [10] was 943 ng/g and the concentration at 6 h [10] was 634 ng/g. The concentration at 24 h (iris-ciliary body, […], Day 15, […] BID, 24 hr, read-out: Mean Iris-Ciliary Concentration) was 184 ng/g, the concentration at 0 h [11] was 36.4 ng/mL and the concentration at 1 h [11] was 910 ng/mL. The concentration at 6 h [11] was 130 ng/mL, the concentration at 12 h [11] was 54.3 ng/mL and the concentration at 24 h (plasma, 15 mg/kg, Day 15, 15 mg/kg BID, 24 hr, read-out: Mean Plasma Concentration) was 10.5 ng/mL. The concentration at 1 h [12] was 423 ng/mL, the concentration at 6 h [12] was 25.1 ng/mL and the concentration at 12 h [12] was 14.8 ng/mL. For the same compound, the concentration at 24 h (plasma, […], Day 1, […] single dose, 24 hr, read-out: Mean Plasma Concentration) was 3.26 ng/mL, the concentration at 0 h [13] was 22.2 ng/mL and the concentration at 1 h [13] was 440 ng/mL. The concentration at 6 h [13] was 90.1 ng/mL, the concentration at 12 h [13] was 29.6 ng/mL and the concentration at 24 h (plasma, […], Day 15, […] BID, 24 hr, read-out: Mean Plasma Concentration) was 6.64 ng/mL. The concentration at 6 h (retina, 15 mg/kg BID, Day 15, 15 mg/kg BID, read-out: Mean Retina Concentration) was 115 ng/g, the concentration at 24 h (retina, 15 mg/kg BID, Day 15, 15 mg/kg BID, 24 hr, read-out: Mean Retina Concentration) was 139 ng/g and the concentration at 96 h (retina, 15 mg/kg BID, Day 15, 15 mg/kg BID, 96 hr, read-out: Mean Retina Concentration) was 31.4 ng/g. For the same compound, the concentration at 168 h (retina, 15 mg/kg BID, Day 15, 15 mg/kg BID, 168 hr, read-out: Mean Retina Concentration) was 22.5 ng/g, the concentration at 240 h (retina, 15 mg/kg BID, Day 15, 15 mg/kg BID, 240 hr, read-out: Mean Retina Concentration) was 19.7 ng/g and the concentration at 0 h [14] was 45 ng/g. The concentration at 1 h [14] was 1120 ng/g, the concentration at 1 h (retina, […], Day 1, […] single dose, read-out: Mean Retina Concentration) was 188 ng/g and the concentration at 0 h [15] was 20.7 ng/g. The concentration at 1 h [15] was 306 ng/g.
